Broadly, the IC50 is the concentration at which inhibition is half-maximal.

ROCK2, sequence (O75116 whole entry, species assumed): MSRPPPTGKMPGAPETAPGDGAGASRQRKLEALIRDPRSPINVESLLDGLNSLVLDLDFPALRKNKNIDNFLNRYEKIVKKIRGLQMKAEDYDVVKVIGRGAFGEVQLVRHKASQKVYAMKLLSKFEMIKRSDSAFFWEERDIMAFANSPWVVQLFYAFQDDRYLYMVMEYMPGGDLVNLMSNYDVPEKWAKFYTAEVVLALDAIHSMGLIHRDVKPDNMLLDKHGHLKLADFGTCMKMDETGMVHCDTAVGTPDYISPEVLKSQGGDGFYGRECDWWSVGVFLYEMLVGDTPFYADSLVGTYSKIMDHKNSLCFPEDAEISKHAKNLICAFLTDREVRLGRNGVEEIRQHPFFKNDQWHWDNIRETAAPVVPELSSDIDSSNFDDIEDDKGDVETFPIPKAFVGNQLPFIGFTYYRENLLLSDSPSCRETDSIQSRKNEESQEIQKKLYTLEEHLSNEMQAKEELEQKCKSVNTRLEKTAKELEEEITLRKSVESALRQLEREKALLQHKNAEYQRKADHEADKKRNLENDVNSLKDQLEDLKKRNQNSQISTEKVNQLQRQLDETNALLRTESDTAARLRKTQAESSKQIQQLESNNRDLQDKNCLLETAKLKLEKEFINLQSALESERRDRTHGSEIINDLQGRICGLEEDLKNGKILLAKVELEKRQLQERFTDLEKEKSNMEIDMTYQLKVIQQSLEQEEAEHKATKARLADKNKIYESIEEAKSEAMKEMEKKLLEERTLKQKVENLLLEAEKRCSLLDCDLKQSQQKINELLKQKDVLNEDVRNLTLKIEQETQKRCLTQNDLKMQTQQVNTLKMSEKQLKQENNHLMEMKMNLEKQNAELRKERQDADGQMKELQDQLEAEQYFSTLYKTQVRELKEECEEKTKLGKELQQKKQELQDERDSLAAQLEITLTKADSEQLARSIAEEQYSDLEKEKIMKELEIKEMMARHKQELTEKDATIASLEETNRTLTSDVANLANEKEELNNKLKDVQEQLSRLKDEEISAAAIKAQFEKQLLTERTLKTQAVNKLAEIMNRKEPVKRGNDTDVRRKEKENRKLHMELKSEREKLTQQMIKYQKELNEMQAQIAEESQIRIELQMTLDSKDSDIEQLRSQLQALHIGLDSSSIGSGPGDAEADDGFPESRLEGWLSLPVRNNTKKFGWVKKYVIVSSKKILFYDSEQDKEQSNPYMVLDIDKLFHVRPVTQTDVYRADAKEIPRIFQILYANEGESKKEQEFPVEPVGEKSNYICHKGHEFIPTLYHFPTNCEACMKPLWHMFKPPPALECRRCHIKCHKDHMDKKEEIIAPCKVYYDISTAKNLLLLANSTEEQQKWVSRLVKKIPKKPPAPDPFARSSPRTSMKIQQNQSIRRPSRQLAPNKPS

The target of the assay is ROCK2 (Homo sapiens, UniProt O75116). Briefly: ROCK2 kinase inhibition assay (Caliper LABCHIP, FITC peptide substrate). The class given is biochemical. Particulars: 5 μM ATP, 1.5 μM peptide substrate; value ranges. As to the method:
The effectiveness of compounds of the present invention as ROCK inhibitors can be determined in a 30 μL assay containing 20 mM HEPES, pH 7.5, 20 mM MgCl2, 0.015% Brij-35, 4 mM DTT, 5 μM ATP and 1.5 μM peptide substrate (FITC-AHA-AKRRRLSSLRA-OH). Compounds were dissolved in DMSO so that the final concentration of DMSO was <2%, and the reaction was initiated with Rho kinase variants. After incubation, the reaction was terminated by the addition of EDTA and the phosphorylated and non-phosphorylated peptides separated using a LABCHIP® 3000 Reader (Caliper Life Sciences). […] Compounds were tested in dose-response format, and the inhibition of kinase activity was calculated at each concentration of compound. The inhibition data were fit using a curve-fitting program to determine the IC50; i.e., the concentration of compound required to inhibit 50% of kinase activity.
Representative Examples were tested in the ROCK2 assay described above and found having ROCK inhibitory activity.
The compound `COc1cccc([C@@H](C)N2CCN(c3ccc(-c4cn[nH]c4)c(OC)c3)C2=O)c1` [Example 13, (R)-1-(3-Methoxy-4-(1H-pyrazol-4-yl)phenyl)-3-(1-(3-methoxyphenyl)ethyl)imidazolidin-2-one] yielded an IC50 of less than 2 nM.
The value for `COc1cccc(CN2CCN(c3ccc(-c4cn[nH]c4)c(OC)n3)C2=O)c1` [Example 466, 1-(6-methoxy-5-(1H-pyrazol-4-yl)pyridin-2-yl)-3-(3-methoxybenzyl)imidazolidin-2-one] was less than 2 nM; that for `CNc1nc(N2CCN(Cc3cc(F)cc(OC)c3)C2=O)ccc1-c1cn[nH]c1` [Example 200, 1-(3-fluoro-5-methoxy-benzyl)-3-(6-(methyl-amino)-5-(1H-pyrazol-4-yl)pyridin-2-yl)-imidazolidin-2-one] was 2.1 to 20 nM.
The value for `COc1cc(Cn2ccn(-c3ccc(-c4cn[nH]c4)cc3)c2=O)ccc1F` [Example 407, 1-(4-(1H-pyrazol-4-yl)phenyl)-3-(4-fluoro-3-methoxybenzyl)-1H-imidazol-2(3H)-one] was 20.1 to 200 nM; that for `COc1cc(N2C(=O)CN(Cc3ccccc3Cl)C2=O)ccc1-c1cn[nH]c1` [Example 89, 1-(2-chlorobenzyl)-3-(3-methoxy-4-(1H-pyrazol-4-yl)phenyl)imidazolidine-2,4-dione] was 200 to 2000 nM.
The value for `COc1cccc(CN2C(=O)CN(c3ccc(-c4cn[nH]c4)cc3)C2=O)c1` [Example 112, 1-(4-(1H-pyrazol-4-yl)phenyl)-3-(3-methoxybenzyl) imidazolidine-2,4-dione] was less than 2 nM; that for `COc1cc(F)cc(CN2CCN(c3ccc(-c4cn[nH]c4)c(F)c3)C2=O)c1` [Example 425, 1-(3-fluoro-4-(1H-pyrazol-4-yl)phenyl)-3-(3-fluoro-5-methoxybenzyl)imidazolidin-2-one] was less than 2 nM; that for `COc1cc(F)cc(CN2C(=O)N(c3ccc(-c4cn[nH]c4)cn3)C[C@@H]2CO)c1` [Example 313, (R)-1-(5-(1H-pyrazol-4-yl)pyridin-2-yl)-3-(3-fluoro-5-methoxybenzyl)-4-(hydroxymethyl)imidazolidin-2-one] was 20.1 to 200 nM.
`COc1nc(N2CCN(Cc3cccc(F)c3)C2=O)ccc1-c1cn[nH]c1` [Example 226, 1-(3-fluorobenzyl)-3-(6-methoxy-5-(1H-pyrazol-4-yl)pyridin-2-yl)imidazolidin-2-one]: the IC50 was less than 2 nM.
The result for `COc1ccc(F)cc1Cn1ccn(-c2ccc(-c3cn[nH]c3)c(OC)n2)c1=O` [Example 374, 1-(5-fluoro-2-methoxybenzyl)-3-(6-methoxy-5-(1H-pyrazol-4-yl)pyridin-2-yl)-1H-imidazol-2(3H)-one] reads 2.1 to 20 nM.
For `CC(c1cccc(OCC2CC2)c1)N1CCN(c2ccc(-c3cn[nH]c3)cc2)C1=O` (single isomer, unassigned) [Example 195, 1-(4-(1H-pyrazol-4-yl)-phenyl)-3-(1-(3-(cyclo-propyl-methoxy)-phenyl)-ethyl)-imidazolidin-2-one], the IC50 fell in the range of 200 to 2000 nM.
The value for `CCc1nc(N2CCN(Cc3cc(F)cc(OC)c3)C2=O)ccc1-c1cn[nH]c1` [Example 168, 1-(6-ethyl-5-(1H-pyrazol-4-yl)pyridin-2-yl)-3-(3-fluoro-5-methoxy-benzyl) imidazolidin-2-one] was less than 2 nM; that for `COc1cccc(CN2CC(CO)N(c3ccc(-c4cn[nH]c4)cc3)C2=O)c1` (single isomer, unassigned) [Example 127, 3-(4-(1H-Pyrazol-4-yl)phenyl)-4-(hydroxymethyl)-1-(3-methoxybenzyl)imidazolidin-2-one] was less than 2 nM.
The value for `CCc1cc(-n2ccn(Cc3ccc(F)c(OC)c3)c2=O)ccc1-c1cn[nH]c1` [Example 348, 1-(3-ethyl-4-(1H-pyrazol-4-yl)phenyl)-3-(4-fluoro-3-methoxybenzyl)-1H-imidazol-2(3H)-one] was 20.1 to 200 nM.

The record behind these values is US10123993B2, “Cyclic ureas as inhibitors of rock” (BRISTOL-MYERS SQUIBB COMPANY, priority 2015, dated 2018).
